In paper PMC8955938, “c-Myc Protein Level Affected by Unsymmetrical Bisacridines Influences Apoptosis and Senescence Induced in HCT116 Colorectal and H460 Lung Cancer Cells” (International Journal of Molecular Sciences, 2022):
Several values for one entry are separate records, joined by “and”; a condition that tells them apart may be missing. Equal entries are not always repeated.

Tests used:
MRC-5 cells = assay: MTT cell growth inhibition assay, MRC-5; format: cell-based, human; details: for IC50: MRC-5 normal cells; for IC90: MRC5, MRC-5 normal cells
Protocol: To assess cell viability, the MTT assay was used. HCT116, H460, CCD 841 CoN and MRC-5 cells (20,000/well and 50,000/well for cancer and normal cells, respectively) were seeded in 24-well plates, and the following UAs were added at concentrations up to 10 μM: C-2028, C-2041, C-2045 and C-2053. Stock solutions (10 mM) were prepared in sterile water, as well as dilutions, also in water. After 72 h, 3-(4, 5-dimethylthiazol-2-yl)-2,5-diphenyltetrazolium bromide (MTT; 800 μg/well) was added for 3 h, then the formazan crystals were dissolved in DMSO, and absorbance was read at 540 nm. Each point was conducted at least 4 times, and data are expressed relative to controls. The concentration of the drug required to inhibit cells growth by 50 (IC50), 80 (IC80) and 90% (IC90) compared to untreated control cells was determined from the curves plotting survival as a function of dose.

H460 cells [1] = assay: Cell cycle analysis (PI, flow cytometry), H460; format: cell-based, human; details: H460, IC90 doses
Protocol: After drug treatment, trypsinized and floating cells (2 × 10^6) were pooled, washed twice with ice-cold PBS and fixed in 70% (v/v) ethanol overnight at −20 °C. Cells were stained with propidium iodide (PI) (BD Biosciences, San Jose, CA, USA) and monitored by FACS Accuri C6 (BD Biosciences, San Jose, CA, USA).

[2] = system: active caspase-3 in HCT116 cells; assay: Active caspase-3 flow cytometry, HCT116; format: cell-based, human; details: HCT116, IC90 doses, 120 h
Protocol: (§1) Caspase-3 activity was determined using Alexa Fluor 647-conjugated anti-active caspase-3 antibody (BD Biosciences, San Diego, CA, USA) according to the manufacturer’s instructions. Briefly, HCT116 and H460 cells (1 × 10^6) were trypsinized, pelleted, washed twice with ice-cold PBS and fixed in Fixation Buffer for 20 min on ice. After fixation, cells were rinsed twice with Perm Wash Buffer, stained with Alexa Fluor 647-conjugated anti-active caspase-3 antibody for 30 min, rinsed with Perm Wash Buffer and analyzed by flow cytometry with FACS Accuri C6 (BD, San Jose, CA, USA).

[3] = system: cleaved PARP in HCT116 cells; assay: PARP cleavage flow cytometry, HCT116; format: cell-based, human; details: HCT116, IC90 doses, up to 120 h
Protocol: as §1, with “PARP cleavage” for “Caspase-3 activity”, “anti-cleaved PARP” for “anti-active caspase-3”

[4] = system: cleaved PARP in H460 cells; assay: PARP cleavage flow cytometry, H460; format: cell-based, human; details: H460, IC90 doses
Protocol: as §1, with “PARP cleavage” for “Caspase-3 activity”, “anti-cleaved PARP” for “anti-active caspase-3”

H460 cells [5] = assay: Accelerated senescence (SA-β-gal), H460; format: cell-based, human; details: H460, IC90 doses, 72 and 120 h
Protocol: The accelerated senescence examination was based on the analysis of pH 6.0-dependent β-galactosidase (SA-β-gal) expression together with senescence-related morphology, such as enlarged and flattened cells. HCT116 and H460 cells were seeded in 60 mm plates containing microscope coverslips and treated with UAs for up to 120 h. After the treatment, coverslips with attached cells were moved to 35 mm dishes, washed twice with PBS and fixed with […] for 5 min. The cells were then washed twice with PBS (pH 6.0) and incubated at pH 6.0 with X-gal (5-bromo-4-chloro-3-indolyl-β-D-[…], substrate for SA-β-gal) staining solution (1 mg/mL X-gal, 40 mmol/L citric acid/sodium phosphate, pH 6.0, 5 mmol/L potassium ferrocyanide, 5 mmol/L potassium ferricyanide, 150 mmol/L NaCl, 2 mmol/L MgCl2). Following overnight incubation at 37 °C, cells were washed twice with PBS and observed under a light microscopy (OLYMPUS BX60; magnification ×200).

HCT116 cells [6] = assay: Colony-forming assay, HCT116; format: cell-based, human; details: for number of colonies: HCT116, 120 h treatment at IC90 doses, about 250 cells cultured two weeks in fresh medium; for return to proliferation (colony formation): HCT116, IC90 doses, already after 24 h of incubation
Protocol: The ability of cells to return to proliferation after UAs treatment was measured by a colony-forming assay. After drug treatment, 250 HCT116 and H460 cells were harvested and seeded in a new 6-well plate containing fresh medium without the drug and incubated for two weeks. Untreated cells were used as controls. After two weeks, colonies were fixed with 80% ethanol, stained with crystal violet, counted, and photos were taken.

HCT116 cells [7] = assay: Nuclear morphology (Hoechst 33342), HCT116; format: cell-based, human; details: HCT116, IC90 doses
Protocol: Nuclear morphology was examined under a fluorescence microscope (OLYMPUS BX60, […]) after staining with Hoechst 33342. Briefly, after drug treatment, HCT116, H460, CCD 841 CoN and MRC-5 cells were spun onto microscopic slides, fixed with methanol:acetic acid (3:1) for 15 min and stained with Hoechst 33342 (1 mg/mL) for 15 min. Cells were regarded as apoptotic based on the presence of condensed, fragmented chromatin. Enlarged cells containing multiple nuclei were considered as typical of mitotic catastrophe.

HCT116 spheroids = system: HCT116 spheroids; design: method as in PMID 34684841; details: HCT116 3D spheroids; cited from earlier work
H460 spheroids = system: H460 spheroids; design: method as in PMID 34684841; details: H460 3D spheroids; cited from earlier work

| Structure (SMILES) | IC50 (MRC-5 cells; Homo sapiens, MRC5, 72 h) [nM] | IC90 (MRC-5 cells; Homo sapiens, 72 h) [nM] | Poli (polyploid cells) (H460 cells [1]; 24 h) [%] | cells in G1 (H460 cells [1]; 24 h) [%] | cells in G2/M (H460 cells [1]; 24 h) [%] | cells in S (H460 cells [1]; 24 h) [%] | cells in Sub-G1 (H460 cells [1]; 24 h) [%] | Poli (polyploid cells) (H460 cells [1]; 72 h) [%] | cells in G1 (H460 cells [1]; 72 h) [%] | cells in G2/M (H460 cells [1]; 72 h) [%] | cells in S (H460 cells [1]; 72 h) [%] | cells in Sub-G1 (H460 cells [1]; 72 h) [%] | Poli (polyploid cells) (H460 cells [1]; 120 h) [%] | cells in G1 (H460 cells [1]; 120 h) [%] | cells in G2/M (H460 cells [1]; 120 h) [%] | cells in S (H460 cells [1]; 120 h) [%] | cells in Sub-G1 (H460 cells [1]; 120 h) | cells with active caspase-3 [2] | cells with cleaved PARP [3] | cells with cleaved PARP ([4]; 120 h) | further results |
| --- | --- | --- | --- | --- | --- | --- | --- | --- | --- | --- | --- | --- | --- | --- | --- | --- | --- | --- | --- | --- | --- |
| CN(CCCNc1c2ccccc2nc2cccc([N+](=O)[O-])c12)CCCNc1ccc2ncn3c4ccccc4c(=O)c1c23 [Compound C-2028] | ~20 | 2690 ± 640 | 1.70 ± 0.42 | 32.92 ± 3.77 | 21.64 ± 4.23 | 32.74 ± 2.09 | 11.09 ± 3.80 | 2.11 ± 0.55 | 37.15 ± 4.13 | 19.21 ± 6.60 | 15.80 ± 2.33 | 25.45 ± 7.20 | 4.03 ± 0.95 | 29.87 ± 2.31 | 28.98 ± 3.64 | 9.93 ± 2.46 | 26.84 ± 1.92% and 26.8% | 34.8% and 40% | approximately 10% | about 20% | accelerated senescence (SA-β-gal blue staining) (H460 cells [5]): induced senescence to the highest extent; number of colonies (HCT116 cells [6]): one |
| O=c1c2ccccc2n2cnc3ccc(NCCCN4CCN(CCCNc5c6ccccc6nc6cccc([N+](=O)[O-])c56)CC4)c1c32 [Compound C-2041] | 23 ± 4 | 6160 ± 2060 | 1.78 ± 0.42 | 31.30 ± 2.48 | 23.89 ± 5.34 | 34.76 ± 4.78 | 8.43 ± 3.14 | 2.52 ± 0.71 | 42.86 ± 1.87 | 21.24 ± 2.69 | 16.09 ± 2.94 | 17.43 ± 2.40 | 2.30 ± 0.60 | 35.08 ± 3.65 | 14.84 ± 4.06 | 11.59 ± 1.16 | 36.47 ± 3.18% and 36.5% | 39.5% and 40% | approximately 10% | about 20% | apoptotic cells (nuclear morphology) (HCT116 cells [7]; 72 h): 29.4%; number of colonies (HCT116 cells [6]): 7 colonies; inhibition of spheroids growth (HCT116 spheroids): to the least extent; inhibition of spheroids growth (H460 spheroids): to the least extent |
| Cc1ccc([N+](=O)[O-])c2c(NCCCN(C)CCCNc3ccc4ncn5c6ccc(O)cc6c(=O)c3c45)c3ccccc3nc12 [Compound C-2045] | ~300 | 6130 ± 2350 | 1.78 ± 0.33 | 32.25 ± 3.01 | 28.15 ± 2.14 | 26.56 ± 3.44 | 9.84 ± 4.46 | 2.05 ± 0.60 | 39.94 ± 4.65 | 20.87 ± 5.18 | 18.53 ± 5.99 | 18.66 ± 3.61 | 2.28 ± 1.33 | – | 21.49 ± 5.96 | 9.03 ± 1.37 | 42.42 ± 8.29% and 42.4% | 39.3% and 40% | approximately 10% | 28.2% | IC50 (MRC-5 cells; 72 h): 218 ± 37 nM; apoptotic cells (nuclear morphology) (HCT116 cells [7]; 72 h): 20.6%; cells with cleaved PARP ([4]; 72 h): 53.9%; return to proliferation (colony formation) (HCT116 cells [6]): completely blocked their return to proliferation |
| Cc1ccc([N+](=O)[O-])c2c(NCCCN(C)CCCNc3ccc4ncn5c6ccccc6c(=O)c3c45)c3ccccc3nc12 [Compound C-2053] | 120 ± 26 | 3800 ± 1340 | 2.76 ± 0.30 | 30.44 ± 2.27 | 27.37 ± 2.20 | 33.77 ± 3.66 | 6.28 ± 1.52 | 1.73 ± 0.52 | 36.08 ± 5.84 | 24.96 ± 3.05 | 14.09 ± 2.46 | 22.37 ± 2.06 | 2.39 ± 1.17 | – | 19.77 ± 6.06 | 10.78 ± 1.76 | 41.51 ± 5.77% and 41.5% | 20.9% | least degraded | 43.3% | apoptotic cells (nuclear morphology) (HCT116 cells [7]; 72 and 120 h): up to 6.4%; cells with cleaved PARP ([4]; 72 h): 47.8%; accelerated senescence (SA-β-gal blue staining) (H460 cells [5]): least profound changes; return to proliferation (colony formation) (HCT116 cells [6]): completely blocked their return to proliferation; inhibition of spheroids growth (HCT116 spheroids): to the greatest extent; inhibition of spheroids growth (H460 spheroids): to the greatest extent |
